Source: patent publication US9598387B2 (Southern Research Institute, priority 2012, dated 2017)

Assays:
[1] = target: human D2-long dopamine receptor (Homo sapiens (Human), UniProt P14416); assay: Radioligand binding (125I-IABN competition), D2; conditions: HEK cell membranes expressing human D2-long
Procedure: (§1) The affinities of the target compounds were determined using radioligand binding experiments. […] Competition curves were modeled for a single site. Data from competition dose-response curves were analyzed using Tablecurve program (Jandel). IC50 values were converted to equilibrium dissociation constants (Ki values) using the Cheng and Prusoff correction.

[2] = target: human D3 dopamine receptor (Homo sapiens (Human), UniProt P35462); assay: Radioligand binding (125I-IABN competition), D3; conditions: for Ki: 125I-IABN competition, HEK cell membranes expressing human D3; for D2/D3 (D3 selectivity ratio, D2 Ki/D3 Ki): calculated D2 Ki/D3 Ki
Sequence of human D3 dopamine receptor (P35462 whole entry): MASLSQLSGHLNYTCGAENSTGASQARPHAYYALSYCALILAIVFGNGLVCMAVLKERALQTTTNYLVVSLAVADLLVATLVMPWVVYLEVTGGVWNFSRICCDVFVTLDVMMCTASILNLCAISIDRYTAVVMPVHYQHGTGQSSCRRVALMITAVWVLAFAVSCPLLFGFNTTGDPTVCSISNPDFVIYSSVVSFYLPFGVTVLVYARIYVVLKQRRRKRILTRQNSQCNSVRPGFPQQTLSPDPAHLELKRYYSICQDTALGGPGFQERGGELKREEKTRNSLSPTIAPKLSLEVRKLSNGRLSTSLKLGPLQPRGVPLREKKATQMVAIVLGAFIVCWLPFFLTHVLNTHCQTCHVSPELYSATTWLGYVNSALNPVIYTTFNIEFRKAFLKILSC
Procedure: as §1

Sequence of human D2-long dopamine receptor (P14416 whole entry): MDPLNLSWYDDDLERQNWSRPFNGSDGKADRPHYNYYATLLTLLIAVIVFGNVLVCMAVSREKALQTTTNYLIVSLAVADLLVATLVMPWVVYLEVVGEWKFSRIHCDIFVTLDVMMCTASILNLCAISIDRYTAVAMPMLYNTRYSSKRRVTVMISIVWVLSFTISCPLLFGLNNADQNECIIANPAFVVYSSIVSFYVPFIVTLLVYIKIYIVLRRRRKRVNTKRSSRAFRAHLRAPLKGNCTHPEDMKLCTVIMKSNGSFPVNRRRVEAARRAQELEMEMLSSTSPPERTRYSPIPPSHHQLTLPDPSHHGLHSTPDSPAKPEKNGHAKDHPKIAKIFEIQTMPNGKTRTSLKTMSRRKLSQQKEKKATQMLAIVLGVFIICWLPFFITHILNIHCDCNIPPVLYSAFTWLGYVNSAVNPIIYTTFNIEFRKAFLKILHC

| SMILES | Ki [1] | Ki [2] | D2/D3 (D3 selectivity ratio, D2 Ki/D3 Ki) [2] |
| --- | --- | --- | --- |
| CC(C)(C)c1nc(N2CCN(CCCCNC(=O)N3CCN(c4ccccc4C#N)CC3)CC2)cc(C(F)(F)F)n1 [Compound 25, N-(4-(4-(2-(tert-Butyl)-6-(trifluoromethyl)pyrimidin-4-yl)piperazin-1-yl)butyl)-4-(2-cyanophenyl)piperazine-1-carboxamide] | 385 ± 58.5 nM | 16.6 ± 2.2 nM | 23 |
| CC(C)(C)c1cc(N2CCN(CCCCNC(=O)N3CCN(S(=O)(=O)c4ccccc4)CC3)CC2)nc(C(C)(C)C)n1 [Compound 78, N-(4-(4-(2,6-Di-tert-butylpyrimidin-4-yl)piperazin-1-yl)butyl)-4-(phenylsulfonyl)piperazine-1-carboxamide] | 448 ± 75.9 nM | 29 ± 4.8 nM | 15 |
| CC(C)(C)c1nc(N2CCN(CCCCNC(=O)N3CCN(c4cccc(C(F)(F)F)c4)CC3)CC2)cc(C(F)(F)F)n1 [Compound 27, N-(4-(4-(2-(tert-Butyl)-6-(trifluoromethyl)pyrimidin-4-yl)piperazin-1-yl)butyl)-4-(3-(trifluoromethyl)phenyl)piperazine-1-carboxamide] | 1050 ± 95.7 nM | 29.6 ± 3.2 nM | 35 |
| CC(C)(C)c1nc(N2CCN(CCCCNC(=O)c3cn4c(CO)cccc4n3)CC2)cc(C(F)(F)F)n1 [Compound 119, N-(4-(4-(2-(tert-Butyl)-6-(trifluoromethyl)pyrimidin-4-yl)piperazin-1-yl)butyl)-5-(hydroxymethyl)imidazo[1,2-a]pyridine-2-carboxamide] | 934 ± 222 nM | 45.4 ± 11.3 nM |  |
| CC(C)(C)c1nc(N2CCN(CCCCNC(=O)N3CCN(CC=Cc4ccccc4)CC3)CC2)cc(C(F)(F)F)n1 [Compound 74, N-(4-(4-(2-(tert-Butyl)-6-(trifluoromethyl)pyrimidin-4-yl)piperazin-1-yl)butyl)-4-cinnamylpiperazine-1-carboxamide] | 585 ± 72.7 nM | 66.8 ± 16.3 nM | 9 |
| CC(C)(C)c1nc(N2CCN(CCCCNC(=O)N3CCN(C4CC4)CC3c3ccccc3)CC2)cc(C(F)(F)F)n1 (stereo not shown) [Compound 80, N-(4-(4-(2-(tert-Butyl)-6-(trifluoromethyl)pyrimidin-4-yl)piperazin-1-yl)butyl)-4-cyclopropyl-2-phenylpiperazine-1-carboxamide] | 863 ± 135 nM | 118 ± 20.1 nM | 7 |
| CC(C)(C)c1nc(N2CCN(CCCCNC(=O)N3CCN(C(c4ccccc4)c4ccc(Cl)cc4)CC3)CC2)cc(C(F)(F)F)n1 (stereo not shown) [Compound 73, N-(4-(4-(2-(tert-Butyl)-6-(trifluoromethyl)pyrimidin-4-yl)piperazin-1-yl)butyl)-4-((4-chlorophenyl)(phenyl)methyl)piperazine-1-carboxamide] | 990 ± 192 nM | 130 ± 13 nM | 8 |
| CC(C)(C)c1nc(N2CCN(CCCCNC(=O)N3CCN(C4CC4)CC3)CC2)cc(C(F)(F)F)n1 [Compound 35, N-(4-(4-(2-(tert-Butyl)-6-(trifluoromethyl)pyrimidin-4-yl)piperazin-1-yl)butyl)-4-cyclopropylpiperazine-1-carboxamide] | 331 ± 51.9 nM | 12.8 ± 2.3 nM | 26 |
| CC(C)(C)c1nc(N2CCN(CCCCNC(=O)N3CCC(O)(c4ccc(Cl)cc4)CC3)CC2)cc(C(F)(F)F)n1 [Compound 79, N-(4-(4-(2-(tert-Butyl)-6-(trifluoromethyl)pyrimidin-4-yl)piperazin-1-yl)butyl)-4-(4-chlorophenyl)-4-hydroxypiperidine-1-carboxamide] | 834 ± 133 nM | 51.8 ± 11.4 nM | 16 |
| CC(C)(C)c1nc(N2CCN(CCCCNC(=O)N3CCN(c4ccnc5ccccc45)CC3)CC2)cc(C(F)(F)F)n1 [Compound 34, N-(4-(4-(2-(tert-Butyl)-6-(trifluoromethyl)pyrimidin-4-yl)piperazin-1-yl)butyl)-4-(quinolin-4-yl)piperazine-1-carboxamide] | 524 ± 42.2 nM | 12.7 ± 2.5 nM | 41 |
| CC(C)(C)c1nc(N2CCN(CCCCNC(=O)N3CCN(c4ccccc4Cl)CC3)CC2)cc(C(F)(F)F)n1 [Compound 14, N-(4-(4-(2-(tert-Butyl)-6-(trifluoromethyl)pyrimidin-4-yl)piperazin-1-yl)butyl)-4-(2-chlorophenyl)piperazine-1-carboxamide] | 738 ± 88.8 nM | 21.4 ± 3.4 nM | 34 |
| CC(C)(C)c1nc(N2CCN(CCCCNC(=O)N3CCN(Cc4ccccc4)CC3)CC2)cc(C(F)(F)F)n1 [Compound 36, 4-Benzyl-N-(4-(4-(2-(tert-butyl)-6-(trifluoromethyl)pyrimidin-4-yl)piperazin-1-yl)butyl)piperazine-1-carboxamide] | 530 ± 45 nM | 16.7 ± 4.4 nM | 32 |
| O=C(NCCCCN1CCN(c2ccnc3cc(C(F)(F)F)ccc23)CC1)c1cn2ccccc2n1 [Compound 124, N-(4-(4-(7-(Trifluoromethyl)quinolin-4-yl)piperazin-1-yl)butyl)imidazo[1,2-a]pyridine-2-carboxamide] | 4980 ± 843 nM | 98.7 ± 24.3 nM |  |
| O=C(NCCCCN1CCN(c2cc(C(F)(F)F)nc3ccccc23)CC1)N1CCN(c2ccccc2)CC1 [Compound 99, 4-Phenyl-N-(4-(4-(2-(trifluoromethyl)quinolin-4-yl)piperazin-1-yl)butyl)piperazine-1-carboxamide] | 7250 ± 754 nM | 299 ± 37.8 nM | 24 |
| Cc1cc(N2CCN(CCCCNC(=O)N3CCN(S(=O)(=O)c4ccccc4)CC3)CC2)nc(C(C)(C)C)n1 [Compound 46, N-(4-(4-(2-(tert-Butyl)-6-methylpyrimidin-4-yl)piperazin-1-yl)butyl)-4-(phenylsulfonyl)piperazine-1-carboxamide] | 906 ± 169 nM | 31.9 ± 7.2 nM | 28 |
| CC(C)(C)c1nc(N2CCN(CCCCNC(=O)N3CCN(Cc4cccc(C#N)c4)CC3)CC2)cc(C(F)(F)F)n1 [Compound 72, N-(4-(4-(2-(tert-Butyl)-6-(trifluoromethyl)pyrimidin-4-yl)piperazin-1-yl)butyl)-4-(3-cyanobenzyl)piperazine-1-carboxamide] | 820 ± 178 nM | 84.2 ± 20.3 nM | 10 |
| CN1CCN(C(=O)NCCCCN2CCN(c3cc(C(F)(F)F)nc(C(C)(C)C)n3)CC2)CC1 [Compound 64, N-(4-(4-(2-(tert-Butyl)-6-(trifluoromethyl)pyrimidin-4-yl)piperazin-1-yl)butyl)-4-methylpiperazine-1-carboxamide] | 167 ± 25.5 nM | 9.8 ± 2 nM | 17 |
| CN1CCC(N2CCN(C(=O)NCCCCN3CCN(c4cc(C(F)(F)F)nc(C(C)(C)C)n4)CC3)CC2)CC1 [Compound 76, N-(4-(4-(2-(tert-Butyl)-6-(trifluoromethyl)pyrimidin-4-yl)piperazin-1-yl)butyl)-4-(1-methylpiperidin-4-yl)piperazine-1-carboxamide] | 125 ± 26.6 nM | 18 ± 3 nM | 7 |
| CC(C)(C)c1nc(N2CCN(CCCCNC(=O)N3CCN(c4cccc(Cl)c4Cl)CC3)CC2)cc(C(F)(F)F)n1 [Compound 18, N-(4-(4-(2-(tert-Butyl)-6-(trifluoromethyl)pyrimidin-4-yl)piperazin-1-yl)butyl)-4-(2,3-dichlorophenyl)piperazine-1-carboxamide] | 759 ± 97 nM | 24.6 ± 4.9 nM | 31 |
| CC(C)(C)c1nc(N2CCN(CCCCNC(=O)N3CCN(c4ccncc4)CC3)CC2)cc(C(F)(F)F)n1 [Compound 31, N-(4-(4-(2-(tert-Butyl)-6-(trifluoromethyl)pyrimidin-4-yl)piperazin-1-yl)butyl)-4-(pyridin-4-yl)piperazine-1-carboxamide] | 97.4 ± 21.7 nM | 2.6 ± 0.3 nM | 38 |
| O=C(NCCCCN1CCN(c2ccnc3cc(Cl)ccc23)CC1)c1cn2ccccc2n1 [Compound 118, N-(4-(4-(7-Chloroquinolin-4-yl)piperazin-1-yl)butyl)imidazo[1,2-a]pyridine-2-carboxamide] | 1880 ± 488 nM |  |  |
| Cc1nc(N2CCN(CCCCNC(=O)c3cn4ccccc4n3)CC2)cc(C(C)(C)C)n1 [Compound 125, N-(4-(4-(6-(tert-Butyl)-2-methylpyrimidin-4-yl)piperazin-1-yl)butyl)imidazo[1,2-a]pyridine-2-carboxamide] | 4600 ± 785 nM |  |  |
| Cc1cc(N2CCN(CCCCNC(=O)c3cn4ccccc4n3)CC2)nc(C(C)(C)C)n1 [Compound 111, N-(4-(4-(2-(tert-Butyl)-6-methylpyrimidin-4-yl)piperazin-1-yl)butyl)imidazo[1,2-a]pyridine-2-carboxamide] | 366 nM |  |  |
| CC(C)(C)c1nc(N2CCN(CCCCNC(=O)C3CCN(c4ccccc4)CC3)CC2)cc(C(F)(F)F)n1 [Compound 108, N-(4-(4-(2-(tert-Butyl)-6-(trifluoromethyl)pyrimidin-4-yl)piperazin-1-yl)butyl)-1-phenylpiperidine-4-carboxamide] | 809 ± 194 nM |  |  |
| O=C(NCCCCN1CCN(c2cc(C(F)(F)F)nc3ccccc23)CC1)c1cn2ccccc2n1 [Compound 130, N-(4-(4-(2-(Trifluoromethyl)quinolin-4-yl)piperazin-1-yl)butyl)imidazo[1,2-a]pyridine-2-carboxamide] | 13600 ± 6260 nM |  |  |
| CC(C)(C)c1nc(C2CC2)cc(N2CCN(CCCCNC(=O)c3cn4ccccc4n3)CC2)n1 [Compound 112, N-(4-(4-(2-(tert-Butyl)-6-cyclopropylpyrimidin-4-yl)piperazin-1-yl)butyl)imidazo[1,2-a]pyridine-2-carboxamide] | 191 nM |  |  |
